The values below come from ChEMBL document CHEMBL3352763, “Selective inhibition of human carbonic anhydrases by novel amide derivatives of probenecid: synthesis, biological evaluation and molecular modelling studies” (Bioorg Med Chem, 2014).

The target in one test is Carbonic anhydrase 2 (Homo sapiens, UniProt P00918). Put plainly: Inhibition of recombinant human carbonic anhydrase 2 after 15 mins by stopped flow CO2 hydration assay.
A further test has as its target Carbonic anhydrase 9 (Homo sapiens, UniProt Q16790). The experiment in a line: Inhibition of recombinant human carbonic anhydrase 9 after 15 mins by stopped flow CO2 hydration assay.
The next test addresses Carbonic anhydrase 1 (Homo sapiens, UniProt P00915). The experiment in a line: Inhibition of recombinant human carbonic anhydrase 1 after 15 mins by stopped flow CO2 hydration assay.
The next test addresses Carbonic anhydrase 12 (Homo sapiens, UniProt O43570). Put plainly: Inhibition of recombinant human carbonic anhydrase 12 after 15 mins by stopped flow CO2 hydration assay.

Sequence of Carbonic anhydrase 1 (P00915 whole entry): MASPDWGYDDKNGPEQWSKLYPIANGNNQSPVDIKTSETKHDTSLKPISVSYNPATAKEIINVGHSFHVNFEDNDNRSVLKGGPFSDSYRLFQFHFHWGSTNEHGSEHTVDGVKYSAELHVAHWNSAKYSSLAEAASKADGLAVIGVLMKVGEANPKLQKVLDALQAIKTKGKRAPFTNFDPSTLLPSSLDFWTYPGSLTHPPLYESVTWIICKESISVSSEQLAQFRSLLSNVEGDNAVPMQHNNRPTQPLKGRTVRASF
Sequence of Carbonic anhydrase 12 (O43570 whole entry): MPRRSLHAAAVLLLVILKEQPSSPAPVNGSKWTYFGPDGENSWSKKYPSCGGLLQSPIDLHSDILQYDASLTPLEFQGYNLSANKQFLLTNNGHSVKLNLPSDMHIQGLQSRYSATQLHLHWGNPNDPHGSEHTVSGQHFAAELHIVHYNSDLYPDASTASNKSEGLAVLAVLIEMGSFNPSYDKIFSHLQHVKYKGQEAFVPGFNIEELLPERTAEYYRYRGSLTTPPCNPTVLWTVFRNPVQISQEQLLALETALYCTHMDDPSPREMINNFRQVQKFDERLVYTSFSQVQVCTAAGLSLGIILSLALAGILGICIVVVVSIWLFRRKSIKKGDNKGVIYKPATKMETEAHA

In the case of `CCCN(CCC)S(=O)(=O)c1ccc(C(=O)NC)cc1`, the Ki at Carbonic anhydrase 2 is greater than 10 µM; on Carbonic anhydrase 9, 0.165 µM.
For `CCCN(CCC)S(=O)(=O)c1ccc(C(=O)NC2CCCCC2)cc1`, in that order: greater than 10 µM and 0.234 µM.
For `CCCN(CCC)S(=O)(=O)c1ccc(C(=O)NC2CCCCC2C)cc1` (configuration not stated) the same measures were greater than 10 µM and 0.26 µM.
For the compound `CCCN(CCC)S(=O)(=O)c1ccc(C(=O)NCCN2CCOCC2)cc1`, the values for the Ki at Carbonic anhydrase 2 and at Carbonic anhydrase 9 were greater than 10 µM and 0.251 µM, respectively.
For `CCCN(CCC)S(=O)(=O)c1ccc(C(=O)Nc2ccccc2)cc1` the same measures were greater than 10 µM and 0.171 µM.
For `CCCN(CCC)S(=O)(=O)c1ccc(C(=O)Nc2ccccn2)cc1` the same measures were greater than 10 µM and 0.228 µM.
For `CCCN(CCC)S(=O)(=O)c1ccc(C(=O)Nc2nncs2)cc1`, in that order: greater than 10 µM and 0.216 µM.
As to `CCCN(CCC)S(=O)(=O)c1ccc(C(=O)Nc2cccc(Cl)c2)cc1`, the Ki on Carbonic anhydrase 2 was greater than 10 µM; at Carbonic anhydrase 9 it was 0.198 µM.
For `CCCN(CCC)S(=O)(=O)c1ccc(C(=O)Nc2ccc(Cl)cc2)cc1` the same measures were greater than 10 µM and 0.243 µM.
For `CCCN(CCC)S(=O)(=O)c1ccc(C(=O)Nc2cccc([N+](=O)[O-])c2)cc1`, the Ki on Carbonic anhydrase 2 is greater than 10 µM; at Carbonic anhydrase 9 it was 0.265 µM.
In the case of `CCCN(CCC)S(=O)(=O)c1ccc(C(=O)Nc2ccccc2[N+](=O)[O-])cc1`, on Carbonic anhydrase 2, the Ki was greater than 10 µM.
As to `CCCN(CCC)S(=O)(=O)c1ccc(C(=O)Nc2ccccc2N)cc1`, the Ki on Carbonic anhydrase 2 is greater than 10 µM; at Carbonic anhydrase 9, 0.223 µM.
For the compound `CCCN(CCC)S(=O)(=O)c1ccc(C(=O)O)cc1` [PROBENECID], the Ki is greater than 10 µM at Carbonic anhydrase 1, 0.431 µM at Carbonic anhydrase 2, 0.36 µM on Carbonic anhydrase 9 and 1.24 µM on Carbonic anhydrase 12.

By Ki is commonly meant a measure of affinity in units of concentration, obtained from inhibition or displacement.
